Data from ChEMBL document CHEMBL3351419, “Orally bioavailable 6-chloro-7-methoxy-4(1H)-quinolones efficacious against multiple stages of Plasmodium” (J Med Chem, 2014).
Converted amounts (≈) assume the structure as drawn.

Experiments:
Plasmodium falciparum [1] = experiment: Antimalarial activity against multi-drug-resistant Plasmodium falciparum W2 infected in human type A+ erythrocytes assessed as growth inhibition after 72 hrs by SYBR Green I assay; assay type: functional, organism-based; details: W2, 72 h
Plasmodium falciparum [2] = experiment: Antimalarial activity against multi-drug-resistant Plasmodium falciparum TM90-C2B infected in human type A+ erythrocytes assessed as growth inhibition after 72 hrs by SYBR Green I assay; assay type: functional, organism-based
[3] = Resistance index, ratio of EC50 for multi-drug-resistant Plasmodium falciparum TM90-C2B infected in human type A+ erythrocytes to EC50 for multi-drug-resistant Plasmodium falciparum W2 infected in human type A+ erythrocytes; assay type: functional
J774 = experiment: Cytotoxicity against mouse J774 cells after 72 hrs by CellTiter 96 assay; assay type: cell-based; details: J774, 72 h
[4] = Cytotoxicity index, ratio of EC50 for mouse J774 cells to EC50 for multi-drug-resistant Plasmodium falciparum TM90-C2B infected in human type A+ erythrocytes; assay type: toxicity, cell-based; details: read-out: Ratio EC50
Plasmodium berghei [5] = experiment: Antimalarial activity against Plasmodium berghei ANKA expressing GFP infected in Balb/c mouse assessed as inhibition of parasitemia at 50 mg/kg, po qd administered as single dose on day 3 to 5 of exposure measured on day 6 post exposure by in vivo thomson test relative to control; assay type: functional
Plasmodium berghei [6] = experiment: Antimalarial activity against Plasmodium berghei ANKA expressing GFP infected in Balb/c mouse assessed as inhibition of parasitemia at 10 mg/kg, po qd administered as single dose on day 3 to 5 of exposure measured on day 6 post exposure by in vivo thomson test relative to control; assay type: functional
Plasmodium berghei [7] = experiment: Antimalarial activity against Plasmodium berghei ANKA expressing GFP infected in Balb/c mouse assessed as mouse survival at 50 mg/kg, po qd administered as single dose on day 3 to 5 of exposure measured on day 6 post exposure by in vivo thomson test relative to control; assay type: functional
Plasmodium berghei [8] = experiment: Antimalarial activity against Plasmodium berghei ANKA expressing GFP infected in Balb/c mouse assessed as mouse survival at 10 mg/kg, po qd administered as single dose on day 3 to 5 of exposure measured on day 6 post exposure by in vivo thomson test relative to control; assay type: functional
Plasmodium berghei [9] = experiment: animal or person; details: ANKA, in Mus musculus, read-out: INH
Plasmodium berghei [10] = experiment: animal or person; details: ANKA, in Mus musculus, read-out: INH; remark: listed apart in the source
Plasmodium berghei [11] = experiment: Antimalarial activity against Plasmodium berghei ANKA expressing GFP infected in Balb/c mouse assessed as mouse cured from disease at 50 mg/kg, po qd administered as single dose on day 3 to 5 of exposure measured on day 30 post exposure by in vivo thomson test relative to control; assay type: functional
Plasmodium berghei [12] = experiment: Antimalarial activity against Plasmodium berghei ANKA expressing GFP infected in Balb/c mouse assessed as mouse cured from disease at 10 mg/kg, po qd administered as single dose on day 3 to 5 of exposure measured on day 30 post exposure by in vivo thomson test relative to control; assay type: functional
Liver microsome = experiment: Half life in human liver microsomes at 1 uM by LC-MS analysis; assay type: ADME
[13] = Aqueous solubility of the compound at pH 7.4; assay type: physicochemical; details: buffer
[14] = octanol/water, pH 7.4

SMILES	EC50 (Plasmodium falciparum [1]) [nM]	EC50 (Plasmodium falciparum [2]) [nM]	Ratio EC50 [3]	EC50 (J774) [nM]	selectivity ratio [4]	inhibition in vivo at 50 mg/kg (Plasmodium berghei [5]) [%]	inhibition in vivo at 10 mg/kg (Plasmodium berghei [6]) [%]	mouse survival time at 50 mg/kg (Plasmodium berghei [7]) [days]	survival time at 10 mg/kg (Plasmodium berghei [8]) [days]	inhibition in vivo at 50 mg/kg (Plasmodium berghei [9]) [%]	inhibition in vivo at 50 mg/kg (Plasmodium berghei [10]) [%]	Activity (Plasmodium berghei [11]) [%]	Activity (Plasmodium berghei [12]) [%]	t1/2 (Liver microsome) [h]	solubility kinetic [13] [µM]	logD [14]
COc1cc2[nH]c(C)c(-c3ccccc3C)c(=O)c2cc1Cl	5.83	4.03	0.69	> 31900	> 7910	41	17	0	0	9	–	–	–	–	–	–
COc1cc2[nH]c(C)c(-c3ccc(N(C)C)nc3)c(=O)c2cc1Cl	748	91.1	0.12	> 29100	> 319	22	< 1	0	0	–	–	–	–	–	–	–
COc1cc2[nH]c(C)c(-c3ccc(N4CCN(C)CC4)nc3)c(=O)c2cc1Cl	1580	536	0.34	> 25100	> 46.8	–	–	–	–	0	0	–	–	–	–	–
COc1cc2[nH]c(C)c(-c3ccco3)c(=O)c2cc1Cl	34.2	8.43	0.25	> 34500	> 4100	< 1	< 1	0	0	–	–	–	–	–	–	–
COc1ccc(-c2c(C)[nH]c3cc(OC)c(Cl)cc3c2=O)cc1	54	11.3	0.21	> 30300	> 2690	–	–	–	–	53.6	26.9	–	–	–	–	–
COc1cc2[nH]c(C)c(-c3ccc(OC(C)C)cc3)c(=O)c2cc1Cl	58.4	12.6	0.22	> 27900	> 2220	–	–	–	–	41.4	26.8	–	–	–	–	–
COc1cc2[nH]c(C)c(-c3ccc(CO)cc3)c(=O)c2cc1Cl	154	93.9	0.61	> 30300	> 323	< 1	< 1	0	0	–	–	–	–	–	–	–
COc1cc2[nH]c(C)c(-c3ccc(-c4ccccc4)cc3)c(=O)c2cc1Cl	1.78	4.33	2.43	> 26600	> 6140	79	80	0	0	85.7	61	–	–	–	–	–
COc1cc2[nH]c(C)c(-c3ccc(Oc4ccccc4)cc3)c(=O)c2cc1Cl	2.4	1.31	0.55	> 25500	> 19500	70	87	4	4	83.9	69	0	0	–	–	–
COc1cc2[nH]c(C)c(-c3ccc(F)cc3)c(=O)c2cc1Cl	20.8	35.8	1.72	> 31500	> 879	30	63	1	1	–	–	0	0	–	–	–
COc1cc2[nH]c(C)c(-c3ccc(F)cc3F)c(=O)c2cc1Cl	26.3	44.6	1.7	> 29800	> 668	–	–	–	–	44.3	29.1	–	–	–	–	–
COc1cc2[nH]c(C)c(-c3ccc(C(F)(F)F)cc3)c(=O)c2cc1Cl	6.25	5.98	0.96	> 27200	> 4550	97	92	4	3	–	–	0	0	–	–	–
COc1cc2[nH]c(C)c(-c3ccc(OC(F)(F)F)cc3)c(=O)c2cc1Cl	7.72	7.76	1.01	> 26100	> 3360	–	–	–	–	60	28.8	–	–	–	–	–
COc1cc2[nH]c(C)c(-c3ccc(F)cc3C)c(=O)c2cc1Cl	7.52	8.07	1.07	13600	1690	–	–	–	–	–	–	–	–	1.93	< 2	2.7
COc1cc2[nH]c(C)c(-c3ccc(Oc4ccc(OC(F)(F)F)cc4)cc3C)c(=O)c2cc1Cl	0.312	0.646	2.07	> 20400	> 31600	98	99	–	23	–	–	–	100	–	< 2	2.1
COc1cc2[nH]c(C)c(-c3ccc(COc4ccc(OC(F)(F)F)cc4)cc3)c(=O)c2cc1Cl	7.74	1.59	0.21	> 20400	> 12800	–	–	–	–	–	–	–	–	2.15	–	4.4
COc1cc2[nH]c(C)c(-c3ccc(OCc4ccccc4)c(F)c3)c(=O)c2cc1Cl	73.4	10.8	0.15	> 23600	> 2180	–	–	–	–	–	–	–	–	0.383	< 2	3.8
CCCSc1ccc2nc(NC(=O)OC)[nH]c2c1 [ALBENDAZOLE]	–	–	–	–	–	–	–	–	–	–	–	–	–	–	6.1 (≈ 1.62 µg/mL)	–
C[C@H]1[C@H](OC(=O)CCC(=O)O)O[C@@H]2O[C@@]3(C)CC[C@H]4[C@H](C)CC[C@@H]1[C@@]24OO3 [ARTESUNATE]	–	–	–	–	–	–	–	–	–	97	81	–	–	–	–	–
O=C1C(O)=C([C@H]2CC[C@H](c3ccc(Cl)cc3)CC2)C(=O)c2ccccc21 [ATOVAQUONE]	–	18400	–	–	–	–	–	–	–	–	–	0	–	–	–	–
